The experiment has as its system cortical septin structures in MV3 cells. Briefly: Cortical septin localization (SEPT6-GFP) in MV3 cells. The experiment is classed as cell-based, human. The following applies: MV3 SEPT6-GFP; WGA (50 ug/ml), VitroGel, H1152 (1 μM), NSC668394 (10 μM). The protocol:
Cells Embedded in 3D Collagen.
Cells Grown in VitroGel Coffins. VitroGel coffins were prepared by embedding MV3 or A375 cells in VitroGel 3D or RGD at 1:1 dilution according to manufacturer's instructions (TheWell Biosciences, sku #TWG001). […] A 1:1 solution of VitroGel and VitroGel Dilution Solution was made and added to cell suspension at a ratio of 4:1 (VitroGel: cells) using gentle pipetting until well-mixed (with care taken not to form bubbles). Cell/VitroGel solution was transferred to an 8-well uncoated ibidi μ-slide (ibidi cat #80821) at 100 μl/well, spread over the bottom of wells with a pipette tip, and allowed to polymerize at room temperature for 15 minutes. The remainder of the well was then filled with 10% FBS DMEM and slide was stored at 37° C. and 5% CO2 for either 24 hrs for viability assays, 3 hrs for ERK activity assays, or 1 hour for visualization of septins/PI3K activity.
3D Light-Sheet Imaging. […] All images were saved in the OME-TIFF format.
3D Cell Image Analysis. Cell morphology and septin localization were analyzed principally via u-shape3D similar to the protocol described in Driscoll et al. Nature Methods. 16, 1037-1044 (2019), the disclosure of which is incorporated herein in its entirety. Briefly, 3D images were first deconvolved using either a Richardson-Lucy or Wiener algorithm with an experimentally measured point spread function. […] Cell surfaces were then represented as triangle meshes, and the mean surface curvature at every triangle was calculated according to methods described in Driscoll et al. Nature Methods. […] Septin and NRAS localization was measured from fluorescence images by extending a sphere of either 1 μm (for septins) or 2 μm (for NRAS) about each mesh triangle and mapping to the triangle the average intensity both within that sphere and the cell. Image intensity was not depth normalized prior to analysis, but was instead measured from the raw, undeconvolved image. […]
Cortical septin levels were quantified by measuring the mean cytoplasmic intensity of each cell using hand-drawn ROIs that excluded nuclei (performed with the FIJI ImageJ package), and then calculating for each cell its fraction of cortical voxels (intracellular voxels within 0.96 μm of the u-Shape3D-derived surface) that were higher than that cell's mean cytoplasmic intensity (performed using a MATLAB script). NRAS enrichment at the surface was quantified by first calculating the total amount of intracellular signal expected to be within 0.96 μm of the surface if the cell's signal was homogenously distributed between all voxels, and then calculating the percent change between this value and the observed value for each cell. […]

Turning to `Cc1cncc2cccc(S(=O)(=O)N3CCCNC[C@@H]3C)c12` [H1152], the “septin localization (cortical levels)” value is “pronounced effects on septin localization, reducing cortical levels”.

Source of the values: US20250268980A1, “AN ANTICANCER THERAPY TARGETING RAS AND OTHER ONCOGENIC SIGNALS BY INHIBITION OF DYNAMIC BLEBBING AND/OR SEPTINS” (THE BOARD OF REGENTS OF THE UNIVERSITY OF TEXAS SYSTEM, priority 2022, published 2025).
